# Key:
# yeast HSP90 = yeast HSP90 (Saccharomyces cerevisiae, UniProt P02829); assay: Hsp90 ATPase assay (malachite green); assay type: biochemical
# Experimental: (§1) For present invention, the ATPase activity of yeast HSP90 was measured using malachite green assay. Formula I compounds for primary antitumoral activity were treated in human colorectal cancer cells (HCT116) showing increased expression levels of HSP90 client protein and cotoxicity IC50 values was measured as a result.
# [1] = tested on: human colorectal cancer cells (HCT116); assay: Growth inhibition assay (cytotoxicity) in HCT116; assay type: cell-based; settings: HCT-116
# Experimental: as §1
# [2] = tested on: A2780 Human ovarian cancer cells; assay: In vivo antitumor efficacy, A2780 subcutaneous xenograft; settings: 200 mg/kg po qdx5, 2 weeks, A2780 xenograft in female Balb/c nude mice
# Experimental: A2780 Human ovarian cancer cells were established as subcutaneous xenografts by injection of 8×10^6 cells into the flanks of adult female Balb/c nude mice. Mice with established tumors (50-200 mm^3) were selected for study (n=3-6/treatment group). The test compounds were formulated in ethanol-PEG400-DW and administered orally (po) at a dose of 200 mg/kg. The vehicle alone was administered to control groups. Animals were dosed 5 days per week (Monday through Friday) for 2 consecutive weeks. Animals were weighed and tumor size was determined twice weekly by caliper measurements, and tumor volumes were calculated (volume=[l×w^2]/2(mm^3), where l and w refer to the larger and smaller dimensions collected at each measurement). The mean tumor volumes of each group were calculated. The change in mean treated tumor volume was divided by the change in mean control tumor volume, multiplied by 100 and subtracted from 100% to give the tumor growth inhibition for each group.
# [3] = Mouse pharmacokinetics of prodrug after oral gavage; assay type: in vivo, Balb/c male mice; settings: single PO dose 100 mg/kg
# Experimental: Pharmacokinetics test was carried out in order to confirm the change from invented prodrugs to parent compounds in vivo. Balb/c male mice are dosed with a prodrug by oral gavages. A single administration of a prodrug is given and a dose volume of 10 mL/kg is used for PO doses.
# Blood samples are collected in lithium heparin coated tubes at 10, 20, 30, 60, 120 min. Plasma is isolated by centrifugation and frozen before analysis. Plasma samples are prepared by liquid-liquid extraction with Ethyl acetate containing internal standard. Quantification is by using a LC-MS/MS method specific to the selected compound. Animals that had been dosed the selected compound were analyzed for prodrug and the parent compound. Pharmacokinetics parameters are calculated using WinNonLinnon compartmental analysis software.
# yeast HSP90, sequence (P02829 whole entry): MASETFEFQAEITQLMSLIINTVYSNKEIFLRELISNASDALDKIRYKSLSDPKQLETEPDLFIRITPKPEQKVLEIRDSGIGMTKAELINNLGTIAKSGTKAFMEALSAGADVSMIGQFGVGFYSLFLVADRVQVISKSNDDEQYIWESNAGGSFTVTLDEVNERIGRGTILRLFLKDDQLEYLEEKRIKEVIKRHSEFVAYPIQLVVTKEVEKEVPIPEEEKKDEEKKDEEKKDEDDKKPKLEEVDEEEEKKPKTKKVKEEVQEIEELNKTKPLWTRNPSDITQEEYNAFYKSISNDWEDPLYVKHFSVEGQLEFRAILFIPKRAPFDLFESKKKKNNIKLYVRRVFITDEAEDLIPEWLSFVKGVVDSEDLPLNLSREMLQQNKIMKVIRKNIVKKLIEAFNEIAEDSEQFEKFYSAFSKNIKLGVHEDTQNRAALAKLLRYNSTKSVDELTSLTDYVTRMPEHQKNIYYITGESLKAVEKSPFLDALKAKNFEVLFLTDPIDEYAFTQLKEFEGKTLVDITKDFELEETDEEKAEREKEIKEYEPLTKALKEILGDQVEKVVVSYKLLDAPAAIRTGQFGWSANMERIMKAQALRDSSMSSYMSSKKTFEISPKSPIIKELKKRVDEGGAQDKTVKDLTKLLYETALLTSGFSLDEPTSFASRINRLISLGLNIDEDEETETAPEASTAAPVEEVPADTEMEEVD
IC50 (yeast HSP90),exposure of the active pharmaceutical agent (I-97) relative to the starting dose [3],SMILES,IC50 [1],% TGI [2]
< 500 nM,,"CCNC(=O)c1noc(-c2cc(C(C)C)c(O)cc2O)c1-c1noc(C)n1 [Compound I-60, 5-(2,4-Dihydroxy-5-isopropylphenyl)-N-ethyl-4-(5-methyl-1,2,4-oxadiazol-3-yl) isoxazole-3-carboxamide]",< 500 nM,50%
500 to 1000 nM,,"CCNC(=O)c1noc(-c2cc(C(C)C)c(O)cc2O)c1-c1noc(S)n1 [Compound I-82, 5-(2,4-Dihydroxy-5-isopropylphenyl)-N-ethyl-4-(5-mercapto-1,2,4-oxadiazol-3-yl)isoxazole-3-carboxamide]",500 to 1000 nM,
500 to 1000 nM,,"CCNC(=O)c1noc(-c2cc(C(C)C)c(O)cc2O)c1-c1noc([C@H](C)O)n1 [Compound I-83, (S)-5-(2,4-Dihydroxy-5-isopropylphenyl)-N-ethyl-4-(5-(1-hydroxyethyl)-1,2,4-oxadiazol-3-yl)isoxazole-3-carboxamide]",< 500 nM,
500 to 1000 nM,,"CCNC(=O)c1noc(-c2cc(C(C)C)c(O)cc2O)c1-c1noc(-c2ccc(OC)cc2)n1 [Compound I-84, 5-(2,4-Dihydroxy-5-isopropylphenyl)-N-ethyl-4-(5-(4-methoxyphenyl)-1,2,4-oxadiazol-3-yl)isoxazole-3-carboxamide]",500 to 1000 nM,
< 500 nM,,"CCNC(=O)c1noc(-c2cc(C(C)C)c(O)cc2O)c1-c1noc(-c2ccc([N+](=O)[O-])cc2)n1 [Compound I-85, 5-(2,4-Dihydroxy-5-isopropylphenyl)-N-ethyl-4-(5-(4-nitrophenyl)-1,2,4-oxadiazol-3-yl)isoxazole-3-carboxamide]",< 500 nM,
500 to 1000 nM,,"CCNC(=O)c1noc(-c2cc(C(C)C)c(O)cc2O)c1-c1noc(OC)n1 [Compound I-86, 5-(2,4-Dihydroxy-5-isopropylphenyl)-N-ethyl-4-(5-methoxy-1,2,4-oxadiazol-3-yl)isoxazole-3-carboxamide]",< 500 nM,
< 500 nM,,"CCNC(=O)c1noc(-c2cc(C(C)C)c(O)cc2O)c1-c1noc(SC)n1 [Compound I-87, 5-(2,4-Dihydroxy-5-isopropylphenyl)-N-ethyl-4-(5-(methylthio)-1,2,4-oxadiazol-3-yl)isoxazole-3-carboxamide]",500 to 1000 nM,
< 500 nM,,"CCNC(=O)c1noc(-c2cc(C(C)C)c(O)cc2O)c1-c1noc(C2CCCC2)n1 [Compound I-88, 4-(5-Cyclopentyl-1,2,4-oxadiazol-3-yl)-5-(2,4-dihydroxy-5-isopropylphenyl)-N-ethylisoxazole-3-carboxamide]",< 500 nM,
500 to 1000 nM,,"CCNC(=O)c1noc(-c2cc(C(C)C)c(O)cc2O)c1-c1noc(C2CCCCC2)n1 [Compound I-89, 4-(5-Cyclohexyl-1,2,4-oxadiazol-3-yl)-5-(2,4-dihydroxy-5-isopropylphenyl)-N-ethylisoxazole-3-carboxamide]",< 500 nM,
500 to 1000 nM,,"CCNC(=O)c1noc(-c2cc(C(C)C)c(O)cc2O)c1-c1noc(-c2ccc(OCC)cc2)n1 [Compound I-90, 5-(2,4-Dihydroxy-5-isopropylphenyl)-4-(5-(4-ethoxyphenyl)-1,2,4-oxadiazol-3-yl)-N-ethylisoxazole-3-carboxamide]",> 1000 nM,
500 to 1000 nM,,"CCNC(=O)c1noc(-c2cc(C(C)C)c(O)cc2O)c1-c1noc(C(O)CCl)n1 (stereo not shown) [Compound I-91, 4-(5-(2-Chloro-1-hydroxyethyl)-1,2,4-oxadiazol-3-yl)-5-(2,4-dihydroxy-5-isopropylphenyl)-N-ethylisoxazole-3-carboxamide]",< 500 nM,
500 to 1000 nM,,"CCNC(=O)c1noc(-c2cc(C(C)C)c(O)cc2O)c1-c1noc(CN2CCOCC2)n1 [Compound I-92, 5-(2,4-Dihydroxy-5-isopropylphenyl)-N-ethyl-4-(5-(morpholinomethyl)-1,2,4-oxadiazol-3-yl)isoxazole-3-carboxamide]",< 500 nM,
500 to 1000 nM,,"CCNC(=O)c1noc(-c2cc(C(C)C)c(O)cc2O)c1-c1noc(CN(C)C)n1 [Compound I-93, 5-(2,4-Dihydroxy-5-isopropylphenyl)-4-(5-((dimethylamino)methyl)-1,2,4-oxadiazol-3-yl)-N-ethylisoxazole-3-carboxamide]",< 500 nM,
< 500 nM,,"CCNC(=O)c1noc(-c2cc(C(C)C)c(O)cc2O)c1-c1noc(CN2CCCCC2)n1 [Compound I-94, 5-(2,4-Dihydroxy-5-isopropylphenyl)-N-ethyl-4-(5-(piperidin-1-ylmethyl)-1,2,4-oxadiazol-3-yl)isoxazole-3-carboxamide]",< 500 nM,
500 to 1000 nM,,"CCNC(=O)c1noc(-c2cc(C(C)C)c(O)cc2O)c1-c1noc(CN2CCCC2)n1 [Compound I-95, 5-(2,4-Dihydroxy-5-isopropylphenyl)-N-ethyl-4-(5-(pyrrolidin-1-ylmethyl)-1,2,4-oxadiazol-3-yl)isoxazole-3-carboxamide]",< 500 nM,
500 to 1000 nM,,"CCNC(=O)c1noc(-c2cc(C(C)C)c(O)cc2O)c1-c1cc[nH]n1 [Compound I-96, 5-(2,4-Dihydroxy-5-isopropylphenyl)-N-ethyl-4-(1H-pyrazol-3-yl)isoxazole-3-carboxamide]",< 500 nM,
500 to 1000 nM,,"CCNC(=O)c1noc(-c2cc(C(C)C)c(O)cc2O)c1-c1ccn(C)n1 [Compound I-97, 5-(2,4-Dihydroxy-5-isopropylphenyl)-N-ethyl-4-(1-methyl-1H-pyrazol-3-yl)isoxazole-3-carboxamide]",< 500 nM,
< 500 nM,,"CCNC(=O)c1noc(-c2cc(C(C)C)c(O)cc2O)c1-c1ccnn1C [Compound I-98, 5-(2,4-Dihydroxy-5-isopropylphenyl)-N-ethyl-4-(1-methyl-1H-pyrazol-5-yl)isoxazole-3-carboxamide]",< 500 nM,
500 to 1000 nM,,"CCNC(=O)c1noc(-c2cc(C(C)C)c(O)cc2O)c1-c1ccn(CC)n1 [Compound I-99, 5-(2,4-Dihydroxy-5-isopropylphenyl)-N-ethyl-4-(1-ethyl-1H-pyrazol-3-yl)isoxazole-3-carboxamide]",< 500 nM,
500 to 1000 nM,,"CCNC(=O)c1noc(-c2cc(C(C)C)c(O)cc2O)c1-c1ccn(C(C)C)n1 [Compound I-100, 5-(2,4-Dihydroxy-5-isopropylphenyl)-N-ethyl-4-(1-isopropyl-1H-pyrazol-3-yl)isoxazole-3-carboxamide]",< 500 nM,
500 to 1000 nM,,"CCCn1ccc(-c2c(C(=O)NCC)noc2-c2cc(C(C)C)c(O)cc2O)n1 [Compound I-101, 5-(2,4-Dihydroxy-5-isopropylphenyl)-N-ethyl-4-(1-propyl-1H-pyrazol-3-yl)isoxazole-3-carboxamide]",< 500 nM,
< 500 nM,,"CCNC(=O)c1noc(-c2cc(C(C)C)c(O)cc2O)c1-c1cnn(C)c1 [Compound I-102, 5-(2,4-Dihydroxy-5-isopropylphenyl)-N-ethyl-4-(1-methyl-1H-pyrazol-4-yl)isoxazole-3-carboxamide]",< 500 nM,
< 500 nM,,"CCNC(=O)c1noc(-c2cc(C(C)C)c(O)cc2O)c1-c1cn[nH]c1 [Compound I-103, 5-(2,4-Dihydroxy-5-isopropylphenyl)-N-ethyl-4-(1H-pyrazol-4-yl)isoxazole-3-carboxamide]",< 500 nM,
500 to 1000 nM,,"CCNC(=O)c1noc(-c2cc(C(C)C)c(O)cc2O)c1-c1cnn(CC)c1 [Compound I-104, 5-(2,4-Dihydroxy-5-isopropylphenyl)-N-ethyl-4-(1-ethyl-1H-pyrazol-4-yl)isoxazole-3-carboxamide]",< 500 nM,
500 to 1000 nM,,"CCNC(=O)c1noc(-c2cc(C(C)C)c(O)cc2O)c1-c1cnn(C(C)C)c1 [Compound I-105, 5-(2,4-Dihydroxy-5-isopropylphenyl)-N-ethyl-4-(1-isopropyl-1H-pyrazol-4-yl)isoxazole-3-carboxamide]",< 500 nM,
,optimal exposure,"CCNC(=O)c1noc(-c2cc(C(C)C)c(OC(=O)[C@@H]3CCCN3C(=O)OC(C)(C)C)cc2OC(=O)C2CCCN2C(=O)OC(C)(C)C)c1-c1ccn(C)n1 (stereo partly drawn) [II-8, (2S,2′S)-1-tert-Butyl^′2,2-4-(3-(ethylcarbamoyl)-4-(1-methyl-1H-pyrazol-3-yl)isoxazol-5-yl)-6-isopropyl-1,3-phenylene dipyrrolidine-1,2-dicarboxylate]",,

# Source: patent publication US20120309750A1, “5-MEMBERED HETEROCYCLE DERIVATIVES AND MANUFACTURING PROCESS THEREOF” (ILDONG PHARM CO., LTD., priority 2010, published 2012)
